Data published in patent publication US20160022761A1, “DEREPRESSION OF IMMUNITY IN ONCOLOGICAL AND VIROLOGICAL CONDITIONS BY HIGH MOBILITY GROUP BOX 1 DERIVED PEPTIDES” (priority 2014, published 2016).

Tested on: human Treg cells
Test: Inhibitory activity of human Treg cells in in vitro assays of T cell stimulation (anti-CD3 or MLR, tritiated thymidine proliferation)
Assay type: cell-based
Conditions: all treatment groups (0.01 ug/ml, 0.1 ug/ml and 1 ug/ml), 72 hours culture; compared to controls that received scrambled peptide (FFSAFLSEC)
Protocol: Isolation of human CD4+, CD4+CD25+, and CD4+CD25− T cells was performed from PBMC by using human Treg isolation kits (Miltenyi Biotec), respectively, according to the manufacturer's instructions. The purity of the resulting T cell populations was confirmed to be >95% by flow cytometry.
Inhibitory activity of human Treg cells was measured in in vitro assays of T cell stimulation. CD25-depleted spleen cells (10^5 cells/well) from human PBMC (105) were stimulated in vitro with the following: anti-human CD3 Ab (BD Pharmingen) or human PBMC (105) from a different donor (to induce a MLR). Cultures were maintained for 72 hours in the presence of SAFFLFCSE peptide at concentrations of 0.01 ug/ml, 0.1 ug/ml and 1 ug/ml. Tritiated thymidine was added at a concentration of 1 microcurie per well for the last 12 hours of culture. Scintillation counting was used to assess proliferation.

SAFFLFCSE
inhibition of T regulatory cell suppressive activity: > 80%
